Laboratory results reported in patent US7652064B2, “AMPA receptor potentiators” (Eli Lilly and Company, priority 2005, dated 2010).

Molecular target: T1, human iGluR4 (Homo sapiens, UniProt P48058)
T1 construct: expressed in transfected cells; host or cells: HEK293
Assay: Whole-cell voltage clamp electrophysiology of AMPA receptor potentiation in HEK293 cells stably expressing human iGluR4
Format: cell-based
Details: voltage-clamped at −60 mV, 1 mM glutamate, fit to the Hill equation, read-out: activity (EC50, potentiation of current evoked by 1 mM glutamate)
Source text: HEK293 cells stably expressing human iGluR4 (obtained as described in European Patent Application Publication No. EP-A1-0583917) are used in the electrophysiological characterization of AMPA receptor potentiators. The extracellular recording solution contains (in mM): 140 NaCl, 5 KCl, 10 HEPES, 1 MgCl2, 2 CaCl2, 10 glucose, pH=7.4 with NaOH, 295 mOsm kg-1. The intracellular recording solution contains (in mM): 140 CsCl, 1 MgCl2, 10 HEPES, (N-[2-hydroxyethyl]piperazine-N1-[2-ethanesulfonic acid]) 10 EGTA (ethylene-bis(oxyethylene-nitrilo)tetraacetic acid), pH=7.2 with CsOH, 295 mOsm kg-1. With these solutions, recording pipettes have a resistance of 2-3 MΩ. […] Responses to 1 mM glutamate are then determined in the presence of test compound. […]
In order to determine the potency of test compounds, the concentration of the test compound, both in the bathing solution and co-applied with glutamate, is increased in half log units until the maximum effect was seen. […] Reversibility of test compound activity is determined by assessing control glutamate 1 mM responses. Once the control responses to the glutamate challenge are re-established, the potentiation of these responses by 100 μM cyclothiazide is determined by its inclusion in both the bathing solution and the glutamate-containing solution. In this manner, the efficacy of the test compound relative to that of cyclothiazide can be determined. […]

T1 sequence (P48058 21-902): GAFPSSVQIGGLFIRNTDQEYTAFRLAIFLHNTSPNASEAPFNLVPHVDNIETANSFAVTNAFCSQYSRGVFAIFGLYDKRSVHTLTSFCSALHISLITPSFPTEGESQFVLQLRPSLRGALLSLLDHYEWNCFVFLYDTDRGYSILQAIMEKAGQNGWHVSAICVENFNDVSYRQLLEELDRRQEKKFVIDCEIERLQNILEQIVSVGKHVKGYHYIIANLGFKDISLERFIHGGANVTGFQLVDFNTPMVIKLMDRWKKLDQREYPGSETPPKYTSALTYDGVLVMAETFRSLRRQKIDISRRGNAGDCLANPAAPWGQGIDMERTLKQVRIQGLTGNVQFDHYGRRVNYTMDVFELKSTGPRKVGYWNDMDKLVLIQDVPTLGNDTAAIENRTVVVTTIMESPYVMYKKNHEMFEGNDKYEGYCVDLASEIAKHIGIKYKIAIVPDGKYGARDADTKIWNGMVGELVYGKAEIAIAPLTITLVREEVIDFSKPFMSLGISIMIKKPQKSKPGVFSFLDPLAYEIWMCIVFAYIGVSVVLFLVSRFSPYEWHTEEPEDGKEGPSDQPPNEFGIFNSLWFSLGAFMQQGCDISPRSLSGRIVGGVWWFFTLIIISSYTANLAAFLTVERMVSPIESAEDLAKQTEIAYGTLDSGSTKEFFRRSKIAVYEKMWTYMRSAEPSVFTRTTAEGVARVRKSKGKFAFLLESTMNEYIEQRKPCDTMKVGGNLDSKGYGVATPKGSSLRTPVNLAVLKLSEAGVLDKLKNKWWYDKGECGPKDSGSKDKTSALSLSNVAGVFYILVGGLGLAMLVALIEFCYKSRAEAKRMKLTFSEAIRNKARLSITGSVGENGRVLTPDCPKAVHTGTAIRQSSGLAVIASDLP

How did the EC50 turn out when `CCOc1cc(C(=O)O)ccc1-c1ccc(-c2sccc2NS(=O)(=O)C(C)C)cc1` [Example 1, 2-Ethoxy-4′-[3-(propane-2-sulfonylamino)-thiophen-2-yl]-biphenyl-4-carboxylic acid] was run?
Its EC50 is 145 nM.
